These results are taken from patent publication US10428017B2, “Modulators of the cystic fibrosis transmembrane conductance regulator protein and methods of use” (AbbVie S.à.r.l., priority 2017, dated 2019).

In the assay the target is T1, F508delCFTR (Homo sapiens, UniProt P13569, DEL508-508).
T1 construct: expressed in transfected cells; host or cells: CFBE4lo-F508delCFTR-HRP cells (human lung derived epithelial cell line, doxycycline-inducible)
Kind of assay: Cell Surface Expression-Horse Radish Peroxidase (CSE-HRP) Assay. The assay is classed as cell-based. As to conditions: for EC50: CFBE4lo-F508delCFTR-HRP cells, 18-24 hours at 33° C.; for Emax / Maximum % activity (with co-corrector): maximum at any tested concentration (up to 20 μM), normalized to on-plate positive control (2 μM co-corrector); for Maximum % activity (with co-corrector): with co-corrector 2 μM. The procedure, abridged: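 Surface F508delCFTR measured via exofacial-loop HRP luminescence (luminol) in doxycycline-induced (0.5 μg/mL, 72 h) CFBE4lo− cells. Compounds, 20 μM top, 3-fold, 8 concentrations, ±2 μM co-corrector, incubated 18-24 h at 33° C; EC50 by variable-slope sigmoidal fit of % activity relative to positive control, three replicate plates.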

Where [1] appears, read: test compound without co-corrector, HRP luminescence readout, read-out: EC50 (without co-corrector).
Where [2] appears, read: test compound without co-corrector.
Where [3] appears, read: with co-corrector 2 μM 3-[(2R,4R)-4-({[1-(2,2-difluoro-1,3-benzodioxol-5-yl)cyclopropyl]carbonyl}amino)-7-methoxy-3,4-dihydro-2H-chromen-2-yl]benzoic acid, read-out: EC50 (with co-corrector).

Where two headings read alike, the source gives them in different places. A value given as a limit tells only on which side of the number the result lay.

T1 sequence (P13569 with tags, fused parts or gaps DEL508-508): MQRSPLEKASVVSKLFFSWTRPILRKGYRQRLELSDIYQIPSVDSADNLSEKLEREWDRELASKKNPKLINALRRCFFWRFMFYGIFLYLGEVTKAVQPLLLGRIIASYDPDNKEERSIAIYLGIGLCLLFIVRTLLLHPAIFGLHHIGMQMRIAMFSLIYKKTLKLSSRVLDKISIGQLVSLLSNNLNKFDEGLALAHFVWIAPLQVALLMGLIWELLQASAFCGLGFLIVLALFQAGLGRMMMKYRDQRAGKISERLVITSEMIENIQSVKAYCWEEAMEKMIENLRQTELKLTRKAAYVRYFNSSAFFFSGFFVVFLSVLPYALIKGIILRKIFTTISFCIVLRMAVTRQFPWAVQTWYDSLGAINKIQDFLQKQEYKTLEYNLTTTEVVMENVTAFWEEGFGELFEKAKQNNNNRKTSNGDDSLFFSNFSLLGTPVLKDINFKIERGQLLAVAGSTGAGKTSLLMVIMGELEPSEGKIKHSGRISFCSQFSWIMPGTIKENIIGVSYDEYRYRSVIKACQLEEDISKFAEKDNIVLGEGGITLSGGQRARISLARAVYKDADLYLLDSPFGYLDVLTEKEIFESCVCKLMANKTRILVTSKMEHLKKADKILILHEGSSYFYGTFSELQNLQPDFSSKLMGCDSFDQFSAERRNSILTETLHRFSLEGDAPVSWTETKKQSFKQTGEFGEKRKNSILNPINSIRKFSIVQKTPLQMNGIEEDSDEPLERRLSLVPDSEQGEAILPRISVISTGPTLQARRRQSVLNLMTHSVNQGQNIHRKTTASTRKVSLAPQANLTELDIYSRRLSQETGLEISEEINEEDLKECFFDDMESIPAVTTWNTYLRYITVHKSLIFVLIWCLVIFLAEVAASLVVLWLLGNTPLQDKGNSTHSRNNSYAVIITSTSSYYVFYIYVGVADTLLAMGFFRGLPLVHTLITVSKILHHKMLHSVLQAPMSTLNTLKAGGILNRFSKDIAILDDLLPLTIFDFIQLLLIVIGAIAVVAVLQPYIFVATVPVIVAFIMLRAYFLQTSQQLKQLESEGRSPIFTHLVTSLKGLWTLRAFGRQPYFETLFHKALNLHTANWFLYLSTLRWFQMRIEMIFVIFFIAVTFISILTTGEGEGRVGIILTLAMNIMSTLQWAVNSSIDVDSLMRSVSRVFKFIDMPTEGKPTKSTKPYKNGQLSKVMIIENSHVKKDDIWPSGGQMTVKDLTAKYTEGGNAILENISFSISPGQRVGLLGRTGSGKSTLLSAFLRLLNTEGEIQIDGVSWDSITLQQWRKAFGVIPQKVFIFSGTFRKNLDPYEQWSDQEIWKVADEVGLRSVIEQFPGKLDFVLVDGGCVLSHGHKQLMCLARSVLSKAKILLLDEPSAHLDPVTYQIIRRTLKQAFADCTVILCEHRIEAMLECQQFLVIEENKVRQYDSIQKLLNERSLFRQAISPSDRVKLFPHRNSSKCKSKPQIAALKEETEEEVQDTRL

`COc1ccc(C2CCC2)c2c1[C@H](C(=O)NS(=O)(=O)c1cccc3cnn(C)c13)CO2` [Example 95, (3S)-7-cyclobutyl-4-methoxy-N-(1-methyl-1H-indazole-7-sulfonyl)-2,3-dihydro-1-benzofuran-3-carboxamide]: the “Maximum % activity (with co-corrector)” value is recorded as “+++ (≥350)”. Further, the concentration for a half-maximal effect (EC50) – broadly, the concentration at which the effect is half-maximal – under setting [1] was less than 3 µM. Also, the Emax (commonly the greatest response seen or fitted, relative to the assay's reference) under setting [2] is no less than 150%. Besides, the EC50 under setting [3] was less than 3 µM.

For `COc1ccc(C2CCC2)c2c1[C@@H](C(=O)NS(=O)(=O)c1cccc3c1CCCN3)CC(C)(C)O2` [Example 96, (4S)-8-cyclobutyl-5-methoxy-2,2-dimethyl-N-(1,2,3,4-tetrahydroquinoline-5-sulfonyl)-3,4-dihydro-2H-1-benzopyran-4-carboxamide], the “Maximum % activity (with co-corrector)” value is reported as “+++ (≥350)”. The half-maximal effective concentration (EC50) under setting [1] was less than 3 µM. In addition, the maximal effect (Emax) under setting [2] is no less than 150%. Moreover, the EC50 under setting [3] is less than 3 µM.

For `COc1ccc(C2CCC2)c2c1[C@H](C(=O)NS(=O)(=O)c1cccc3c1NCCC3)CO2` [Example 99, (3S)-7-cyclobutyl-4-methoxy-N-(1,2,3,4-tetrahydroquinoline-8-sulfonyl)-2,3-dihydro-1-benzofuran-3-carboxamide], the “Maximum % activity (with co-corrector)” value was “+++ (≥350)”. Moreover, the concentration giving a half-maximal response (EC50) under setting [1] is less than 3 µM. Under setting [2], this compound displayed an Emax of no less than 150%. Also, the concentration giving a half-maximal response (EC50) under setting [3] was less than 3 µM.

On to `COc1ccc(C2CCC2)c2c1[C@@H](C(=O)NS(=O)(=O)c1cccc3c1CCCN3)CO2` [Example 100, (3R)-7-cyclobutyl-4-methoxy-N-(1,2,3,4-tetrahydroquinoline-5-sulfonyl)-2,3-dihydro-1-benzofuran-3-carboxamide], for which the “Maximum % activity (with co-corrector)” value is on record as “+++ (≥350)”. Further, the EC50 under setting [1] is 3 to 10 µM. This compound also gave an Emax under setting [2] of 50 to 150%. Besides, the EC50 under setting [3] lay within 3 to 10 µM.

As for `COc1ccc(C2CCC2)c2c1[C@H](C(=O)NS(=O)(=O)c1cccc3c1CCCN3)CO2` [Example 101, (3S)-7-cyclobutyl-4-methoxy-N-(1,2,3,4-tetrahydroquinoline-5-sulfonyl)-2,3-dihydro-1-benzofuran-3-carboxamide], the “Maximum % activity (with co-corrector)” value is on record as “+++ (≥350)”. In addition, the concentration for a half-maximal effect (EC50) under setting [1] is less than 3 µM. Under setting [2], this compound showed an Emax of no less than 150%. For the same compound, the EC50 under setting [3] was less than 3 µM.

As to `COc1ccc(C2CCC2)c2c1C(C(=O)NS(=O)(=O)c1cccc3[nH]ccc13)CCO2` (stereo not shown) [Example 102, 8-cyclobutyl-N-(1H-indole-4-sulfonyl)-5-methoxy-3,4-dihydro-2H-1-benzopyran-4-carboxamide], the “Maximum % activity (with co-corrector)” value is “+++ (≥350)”. Moreover, the EC50 under setting [1] was less than 3 µM. The compound further registered a maximal effect (Emax) under setting [2] of no less than 150%. The EC50 under setting [3] is less than 3 µM.

Regarding `COc1ccc(C2CCC2)c2c1[C@@H](C(=O)NS(=O)(=O)c1cccc3[nH]ccc13)CCO2` [Example 103, (4S)-8-cyclobutyl-N-(1H-indole-4-sulfonyl)-5-methoxy-3,4-dihydro-2H-1-benzopyran-4-carboxamide], the “Maximum % activity (with co-corrector)” value is given as “+++ (≥350)”. The concentration giving a half-maximal response (EC50) under setting [1] was 3 to 10 µM. The compound also came in with an Emax under setting [2] of no less than 150%. Further, the 50% effective concentration (EC50) under setting [3] is less than 3 µM.

Turning to `COc1ccc(C2CCC2)c2c1[C@H](C(=O)NS(=O)(=O)c1cccc3[nH]ccc13)CCO2` [Example 104, (4R)-8-cyclobutyl-N-(1H-indole-4-sulfonyl)-5-methoxy-3,4-dihydro-2H-1-benzopyran-4-carboxamide], the “Maximum % activity (with co-corrector)” value is given as “+++ (≥350)”. Also, under setting [1], the EC50 is less than 3 µM. The compound also had an Emax under setting [2] of no less than 150%. The EC50 under setting [3] is less than 3 µM.

For the compound `COc1ccc(C2CCC2)c2c1OCCC2C(=O)NS(=O)(=O)c1cccc2ncccc12` (stereo not shown) [Example 105, 5-cyclobutyl-8-methoxy-N-(quinoline-5-sulfonyl)-3,4-dihydro-2H-1-benzopyran-4-carboxamide], the “Maximum % activity (with co-corrector)” value was “+++ (≥350)”. Moreover, the EC50 under setting [1] was 3 to 10 µM. Besides, the maximal effect (Emax) under setting [2] is no less than 150%. In addition, the 50% effective concentration (EC50) under setting [3] was less than 3 µM.

As to `COc1ccc(Br)c2c1CCOC2C(=O)NS(=O)(=O)c1cccc2ccccc12` (stereo not shown) [Example 108, 8-bromo-5-methoxy-N-(naphthalene-1-sulfonyl)-3,4-dihydro-1H-2-benzopyran-1-carboxamide], the “Maximum % activity (with co-corrector)” value is recorded as “+++ (≥350)”. Further, the 50% effective concentration (EC50) under setting [1] was in the range of 3 to 10 µM. Under setting [2], this compound returned a maximum response (Emax) of 50 to 150%. Besides, the EC50 under setting [3] is less than 3 µM.

For `O=C(NS(=O)(=O)c1cccc2ccccc12)C1OCCc2ccc(OC(F)(F)F)cc21` (stereo not shown) [Example 109, N-(naphthalene-1-sulfonyl)-7-(trifluoromethoxy)-3,4-dihydro-1H-2-benzopyran-1-carboxamide], the “Maximum % activity (with co-corrector)” value is “++ (≥150 and <350)”. The concentration giving a half-maximal response (EC50) under setting [3] was 3 to 10 µM.

With `COc1cccc2c1CCOC2C(=O)NS(=O)(=O)c1cccc2ccccc12` (stereo not shown) [Example 110, 5-methoxy-N-(naphthalene-1-sulfonyl)-3,4-dihydro-1H-2-benzopyran-1-carboxamide], the “Maximum % activity (with co-corrector)” value is “++ (≥150 and <350)”. Besides, under setting [1], the concentration for a half-maximal effect (EC50) was no less than 10 µM. The same compound came in with an Emax under setting [2] of less than 50%. Further, the EC50 under setting [3] fell in the range of 3 to 10 µM.
